Measured values published in US20210283261A1, “Compositions and Methods for Treating ALK-Mediated Cancer” (ICAHN SCHOOL OF MEDICINE AT MOUNT SINAI, priority 2017, published 2021).

How the values were obtained:
Type in all cases: cell-based
[1] = target: T1, NPM-ALK fusion protein (Homo sapiens, UniProt Q9UM73); test: Western blot of NPM-ALK fusion protein levels in SU-DHL-1 cells; conditions: for effect on ALK fusion protein levels, concentration dependence: SU-DHL-1 cells, 0, 10, 20, 40, 80 and 160 nM; for effect on ALK fusion protein levels, concentration dependence / effect on NPM-ALK fusion protein levels, concentration dependence / significantly reduced ALK fusion protein levels (degraders vs negative controls): 16 h; for effect on NPM-ALK fusion protein levels, concentration dependence: SU-DHL-1 cells, 1, 3, 10, 30 or 100 nM; for rescue of induced ALK fusion protein degradation by MG-132 and MLN4924 / significantly reduced ALK fusion protein levels (degraders vs negative controls): SU-DHL-1 cells; for rescue of induced ALK fusion protein degradation by MG-132 and MLN4924: 2 h pre-treatment, then 100 nM compound for 6 h
T1 construct: endogenous in cells; host or cells: SU-DHL-1; the other entry of the earlier key: NPM1 (P06748, Nucleophosmin)
Procedure: (§1) Cells were cultured in a 37° C. incubator with 5% CO2.
(§2) Cells were washed with cold PBS once and lysed in 1× Laemmli loading buffer directly. […] Membrane was blocked in 5% milk in Tris-buffered saline and Tween 20 (TBST) for 1 h at room temperature, followed by incubation with a primary antibody overnight at 4° C., and a horseradish peroxidase (HRP)-conjugated secondary antibody for 1 h at room temperature. The membrane was imaged by a ChemiDoc MP imaging system (BIO-RAD). Antibodies against GAPDH (abeam), Phospho-ALK (Tyr1507), ALK (Cell Signaling Technology), Tubulin (Santa Cruz) were purchased commercially.
SU-DHL-1 suspension cells were seeded in 12-well plates at a density of 6×10^5/mL and treated with DMSO or indicated compounds at 30 nM or 100 nM for indicated time.
SU-DHL-1 cells were seeded in 12-well plates at a density of 4×10^5/mL and treated with DMSO or indicated serial dilutions of compounds for 16 h. The NPM-ALK fusion protein levels were determined by Western blot and normalized against GPADH (right panel).

[2] = target: T2, ALK fusion protein (Homo sapiens, UniProt Q9UM73); test: Western blot of ALK fusion protein levels in NCI-H3122 cells; conditions: for Dmax at 0.5 µM: NCI-H3122, NCI-H3122 cells, read-out: ALK fusion protein degradation, NCI-H3122 (500 nM); for effect on ALK fusion protein levels, concentration dependence: NCI-H3122 cells, 0, 50, 100, 200, 400 and 800 nM; for effect on ALK fusion protein levels, concentration dependence / significantly reduced ALK fusion protein levels (degraders vs negative controls): 16 h
T2 construct: endogenous in cells; host or cells: NCI-H3122; the other entry of the earlier key: EML4 (Q9HC35, Echinoderm microtubule-associated protein-like 4)

[3] = system: SU-DHL-1 cells; test: Cell viability assay in SU-DHL-1 cells; conditions: 3 days
Procedure: (§3) SU-DHL-1 cells were seeded in 96-well plates at a density of 1×10^4 cells per well, in triplicate. Treated cells with DMSO or indicated serial dilutions of compounds for 2.5 days. Cell growth/survival was measured by using the CellTiter-Glo luminescent cell viability assay following the manufacturer's instructions (Promega) or CCK8 cell viability assay (Sigma). Data was analyzed by using the GraphPad Prism software, Error bars represent ±SD for triplicate experiments.
as §3, with “assay.” for “assay following the manufacturer's instructions (Promega) or CCK8 cell viability assay (Sigma).”, “experiments (left panel).” for “experiments.”
SU-DHL-1 cells were seeded in 96-well plates at a density of 5000 cells per well, in triplicate. The cells were treated with DMSO or indicated serial dilutions of compounds for 3 days. Cell growth was measured using the CellTiter-Glo luminescent cell viability assay. Data were analyzed using the GraphPad Prism.
(§4) SU-DHL-1 and NCI-3122 cells were treated with DMSO or indicated serial dilutions of compounds for 3 days. Data were analyzed using the GraphPad Prism.

[4] = system: NCI-H3122 cells; test: Cell viability assay in NCI-H3122 cells; conditions: 3 days
Procedure: SU-DHL-1, NCI-H3122 and NCI-H2228 cells were cultured in RPMI-1640 medium supplemented with 10% fetal bovine serum, 50 μg/mL penicillin and streptomycin. Cells were cultured in a 37° C. incubator with 5% CO2.
as §4

[5] = system: ALK; test: Characterization of ALK degraders in ALCL and NSCLC cells (summary); conditions: summary statement
Excerpt: Specific exemplary ALK degraders/disruptors were characterized in various different anaplastic large cell lymphoma (ALCL) cells and non-small cell lung cancer (NSCLC) cells (Examples 4-19, FIGS. 1-18). […] This efficacy in suppressing ALK expression and ALK activity correlated with efficacy in inhibiting cancer cell proliferation.

[6] = target: T3, EML4-ALK v3 fusion protein (Homo sapiens, UniProt Q9UM73); test: Western blot of EML4-ALK v3 fusion protein levels in NCI-H2228 cells; conditions: NCI-H2228 cells, 1, 3, 10, 30 or 100 nM, 16 h
T3 construct: endogenous in cells; host or cells: NCI-H2228
Procedure: as §1, §2
Cells were 70% confluent and treated with DMSO or indicated serial dilutions of compounds for 16 h. The EML4-ALK fusion protein levels were determined by Western blot and normalized against GPADH (right panel).

T1 sequence (Q9UM73 with tags, fused parts or gaps): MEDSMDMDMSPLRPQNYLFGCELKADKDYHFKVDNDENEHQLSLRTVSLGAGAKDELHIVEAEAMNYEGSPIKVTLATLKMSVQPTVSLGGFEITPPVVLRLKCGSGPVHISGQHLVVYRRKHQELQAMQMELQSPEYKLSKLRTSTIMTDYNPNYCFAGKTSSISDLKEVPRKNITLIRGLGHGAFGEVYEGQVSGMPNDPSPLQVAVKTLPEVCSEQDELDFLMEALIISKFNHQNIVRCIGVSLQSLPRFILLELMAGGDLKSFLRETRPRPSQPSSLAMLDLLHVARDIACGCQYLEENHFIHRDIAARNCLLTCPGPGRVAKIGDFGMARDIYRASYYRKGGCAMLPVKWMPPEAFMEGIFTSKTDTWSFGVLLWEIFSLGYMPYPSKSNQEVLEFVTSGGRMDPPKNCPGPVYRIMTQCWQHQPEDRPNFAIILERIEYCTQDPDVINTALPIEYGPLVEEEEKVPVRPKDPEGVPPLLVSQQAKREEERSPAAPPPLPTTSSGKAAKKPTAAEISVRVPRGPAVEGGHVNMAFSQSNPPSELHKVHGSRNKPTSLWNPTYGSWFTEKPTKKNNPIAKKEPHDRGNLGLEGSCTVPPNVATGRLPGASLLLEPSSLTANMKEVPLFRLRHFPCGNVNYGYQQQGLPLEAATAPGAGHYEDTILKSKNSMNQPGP
T2 sequence (Q9UM73 with tags, fused parts or gaps): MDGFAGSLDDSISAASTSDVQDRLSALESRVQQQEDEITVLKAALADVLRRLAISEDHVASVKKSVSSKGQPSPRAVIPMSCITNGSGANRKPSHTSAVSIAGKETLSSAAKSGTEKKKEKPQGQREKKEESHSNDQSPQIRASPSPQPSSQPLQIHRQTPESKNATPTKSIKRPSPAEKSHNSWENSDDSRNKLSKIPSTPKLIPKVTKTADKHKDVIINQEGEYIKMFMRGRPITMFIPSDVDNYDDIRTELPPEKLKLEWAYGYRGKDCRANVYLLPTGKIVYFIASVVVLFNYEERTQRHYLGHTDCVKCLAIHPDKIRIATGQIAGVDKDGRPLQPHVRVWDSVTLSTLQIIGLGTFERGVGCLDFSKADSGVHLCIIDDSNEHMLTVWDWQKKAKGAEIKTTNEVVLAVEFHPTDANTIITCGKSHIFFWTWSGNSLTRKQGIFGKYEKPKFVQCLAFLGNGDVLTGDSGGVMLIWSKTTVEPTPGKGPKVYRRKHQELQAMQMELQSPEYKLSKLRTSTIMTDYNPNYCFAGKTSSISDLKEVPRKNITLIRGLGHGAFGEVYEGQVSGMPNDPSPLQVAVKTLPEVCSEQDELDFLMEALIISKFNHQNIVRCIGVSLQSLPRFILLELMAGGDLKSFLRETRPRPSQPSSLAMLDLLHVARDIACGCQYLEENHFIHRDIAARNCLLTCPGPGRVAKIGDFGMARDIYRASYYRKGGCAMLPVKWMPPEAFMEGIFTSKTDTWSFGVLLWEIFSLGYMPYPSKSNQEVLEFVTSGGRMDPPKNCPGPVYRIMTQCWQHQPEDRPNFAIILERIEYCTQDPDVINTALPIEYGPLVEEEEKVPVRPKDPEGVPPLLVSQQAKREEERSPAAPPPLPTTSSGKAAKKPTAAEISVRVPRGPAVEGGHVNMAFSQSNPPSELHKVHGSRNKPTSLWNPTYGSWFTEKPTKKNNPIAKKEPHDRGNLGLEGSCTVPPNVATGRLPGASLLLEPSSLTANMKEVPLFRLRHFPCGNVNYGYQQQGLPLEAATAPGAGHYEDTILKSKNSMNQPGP
T3 sequence (Q9UM73 1058-1620 limits assumed): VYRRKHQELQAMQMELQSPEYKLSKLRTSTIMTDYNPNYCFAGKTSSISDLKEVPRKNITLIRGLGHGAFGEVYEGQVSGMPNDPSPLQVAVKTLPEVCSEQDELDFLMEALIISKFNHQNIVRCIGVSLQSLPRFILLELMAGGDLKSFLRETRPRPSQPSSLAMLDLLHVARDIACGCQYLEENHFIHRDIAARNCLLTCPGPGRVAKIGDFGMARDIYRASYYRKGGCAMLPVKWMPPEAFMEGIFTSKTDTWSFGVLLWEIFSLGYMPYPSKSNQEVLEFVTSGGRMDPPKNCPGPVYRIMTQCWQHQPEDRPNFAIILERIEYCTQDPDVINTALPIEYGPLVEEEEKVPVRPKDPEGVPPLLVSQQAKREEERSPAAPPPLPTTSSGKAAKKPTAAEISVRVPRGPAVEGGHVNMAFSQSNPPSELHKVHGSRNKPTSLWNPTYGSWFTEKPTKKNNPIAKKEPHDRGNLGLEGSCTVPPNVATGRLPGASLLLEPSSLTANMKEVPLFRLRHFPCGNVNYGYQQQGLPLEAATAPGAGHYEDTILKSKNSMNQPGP

SMILES	effect on ALK fusion protein levels, concentration dependence [1]	Dmax at 0.5 µM ([2]; 500 nM, Western blot) [%]	effect on ALK fusion protein levels, concentration dependence [2]	inhibition of cell viability [3]	inhibition of cell viability [4]	suppressing both ALK expression and ALK activity [5]	effect on NPM-ALK fusion protein levels, concentration dependence [1]	effect on EML4-ALK fusion protein levels, concentration dependence [6]	rescue of induced ALK fusion protein degradation by MG-132 and MLN4924 [1]	significantly reduced ALK fusion protein levels (degraders vs negative controls) [1]	ALK fusion protein degradation, NCI-H3122 (500 nM) ([2]; NCI-H3122 cells, 500 nM, Western blot)	significantly reduced ALK fusion protein levels (degraders vs negative controls) ([2]; NCI-H3122 cells)
Cc1cc(Nc2ncc(Cl)c(Nc3ccccc3S(=O)(=O)C(C)C)n2)c(OC(C)C)cc1C1CCN(C(=O)CCCC(=O)N[C@H](C(=O)N2C[C@H](O)C[C@H]2C(=O)N[C@@H](C)c2ccc(-c3scnc3C)cc2)C(C)(C)C)CC1 [HC58-99, (2S,4R)-1-((S)-2-(5-(4-(4-((5-Chloro-4-((2-(isopropylsulfonyl)phenyl)amino)pyrimidin-2-yl)amino)-5-isopropoxy-2-methylphenyl)piperidin-1-yl)-5-oxopentanamido)-3,3-dimethylbutanoyl)-4-hydroxy-N—((S)-1-(4-(4-methylthiazol-5-yl)phenyl)ethyl)pyrrolidine-2-carboxamide]	concentration-dependently reduced	> 80	concentration-dependently reduced	significantly inhibited	significantly inhibited	especially effective	–	–	–	–	–	–
Cc1cc(Nc2ncc(Cl)c(Nc3ccccc3S(=O)(=O)C(C)C)n2)c(OC(C)C)cc1C1CCN(CC(=O)NCCOCCOCCOCCOCCOCCNc2cccc3c2C(=O)N(C2CCC(=O)N(C)C2=O)C3=O)CC1 (stereo not drawn) [CZ47-48, 2-(4-(4-((5-Chloro-4-((2-(isopropylsulfonyl)phenyl)amino)pyrimidin-2-yl)amino)-5-isopropoxy-2-methylphenyl)piperidin-1-yl)-N-(17-((2-(l-methyl-2,6-dioxopiperidin-3-yl)-1,3-dioxoisoindolin-4-yl)amino)-3,6,9,12,15-pentaoxaheptadecyl)acetamide]	–	< 20	–	–	–	–	no significant effect	no significant effect	–	–	–	–
Cc1cc(Nc2ncc(Cl)c(Nc3ccccc3S(=O)(=O)C(C)C)n2)c(OC(C)C)cc1C1CCN(C(=O)COCCOCC(=O)N[C@H](C(=O)N2C[C@H](O)C[C@H]2C(=O)NCc2ccc(-c3scnc3C)cc2)C(C)(C)C)CC1 [CZ47-15, (2S,4R)-1-((S)-2-(2-(2-(2-(4-(4-((5-Chloro-4-((2-(isopropylsulfonyl)phenyl)amino)pyrimidin-2-yl)amino)-5-isopropoxy-2-methylphenyl)piperidin-1-yl)-2-oxoethoxy)ethoxy)acetamido)-3,3-dimethylbutanoyl)-4-hydroxy-N-(4-(4-methylthiazol-5-yl)benzyl)pyrrolidine-2-carboxamide]	concentration-dependently reduced	–	concentration-dependently reduced	significantly inhibited	significantly inhibited	especially effective	–	–	significantly rescued	significantly reduced	++ (Protein degradation >80%)	significantly reduced
Cc1cc(Nc2ncc(Cl)c(Nc3ccccc3S(=O)(=O)C(C)C)n2)c(OC(C)C)cc1C1CCN(C(=O)CCCCC(=O)N[C@H](C(=O)N2C[C@H](O)C[C@H]2C(=O)N[C@@H](C)c2ccc(-c3scnc3C)cc2)C(C)(C)C)CC1 [HC58-100]	concentration-dependently reduced	> 80	concentration-dependently reduced	significantly inhibited	significantly inhibited	especially effective	–	–	–	–	–	–
Cc1cc(Nc2ncc(Cl)c(Nc3ccccc3S(=O)(=O)C(C)C)n2)c(OC(C)C)cc1C1CCN(C(=O)CCCC(=O)N[C@H](C(=O)N2C[C@H](O)C[C@H]2C(=O)NCc2ccc(-c3scnc3C)cc2)C(C)(C)C)CC1 [CZ47-23, (2S,4R)-1-((S)-2-(5-(4-(4-((5-Chloro-4-((2-(isopropylsulfonyl)phenyl)amino)pyrimidin-2-yl)amino)-5-isopropoxy-2-methylphenyl)piperidin-1-yl)-5-oxopentanamido)-3,3-dimethylbutanoyl)-4-hydroxy-N-(4-(4-methylthiazol-5-yl)benzyl)pyrrolidine-2-carboxamide]	concentration-dependently reduced	> 80	concentration-dependently reduced	significantly inhibited	significantly inhibited	especially effective	–	–	significantly rescued	significantly reduced	–	significantly reduced
Cc1cc(Nc2ncc(Cl)c(Nc3ccccc3S(=O)(=O)C(C)C)n2)c(OC(C)C)cc1C1CCN(C(=O)COCCOCC(=O)N[C@H](C(=O)N2C[C@H](O)C[C@H]2C(=O)N[C@@H](C)c2ccc(-c3scnc3C)cc2)C(C)(C)C)CC1 [HC58-98, (2S,4R)-1-((S)-2-(2-(2-(2-(4-(4-((5-Chloro-4-((2-(isopropylsulfonyl)phenyl)amino)pyrimidin-2-yl)amino)-5-isopropoxy-2-methylphenyl)piperidin-1-yl)-2-oxoethoxy)ethoxy)acetamido)-3,3-dimethylbutanoyl)-4-hydroxy-N—((S)-1-(4-(4-methylthiazol-5-yl)phenyl)ethyl)pyrrolidine-2-carboxamide]	concentration-dependently reduced	> 80	concentration-dependently reduced	significantly inhibited	significantly inhibited	especially effective	–	–	–	–	–	–
Cc1cc(Nc2ncc(Cl)c(Nc3ccccc3S(=O)(=O)C(C)C)n2)c(OC(C)C)cc1C1CCN(CC(=O)NCCNc2cccc3c2C(=O)N(C2CCC(=O)N(C)C2=O)C3=O)CC1 (stereo not drawn) [CZ47-40, 2-(4-(4-((5-Chloro-4-((2-(isopropylsulfonyl)phenyl)amino)pyrimidin-2-yl)amino)-5-isopropoxy-2-methylphenyl)piperidin-1-yl)-N-(2-((2-(l-methyl-2,6-dioxopiperidin-3-yl)-1,3-dioxoisoindolin-4-yl)amino)ethyl)acetamide]	–	< 20	–	–	–	–	no significant effect	no significant effect	–	–	–	–
